From publication PMC10436550, “Subacute toxicity evaluations of LPM3480392 in rats, a full µ-opioid receptor biased agonist” (Frontiers in Pharmacology, 2023)
Read-outs that look alike come from different tables or passages of the source.

Assay: Toxicokinetics, plasma LPM3480392 after intravenous administration
Type: in vivo, Sprague Dawley (SD) rats
Details: for concentration at 2 min / AUC(0-t): Sprague-Dawley, rat, plasma; for concentration at 2 min: intravenous; for AUC(0-t): iv
Protocol: Blood samples from animals in LPM3480392 groups were collected at predose and 2 min, 30 min, 1 h and 4 h postdose of the 1st dosing on Days 1 and 28; at 2 min and 4 h postdose of the 2nd dosing on Days 1 and 28; at 2 min, 1 h and 4 h postdose the 3rd dosing on Days 1 and 28. Animals in control group were sampled at predose and 2 min postdose of the 1st dosing on Days 1 and 28. Approximately 0.36 mL of blood was collected from the jugular vein of surviving TK animals at each time point. Whole blood samples were anticoagulated with EDTA-K2 and centrifuged at 2°C–8°C and 1800 × g for 10 min. The harvested plasma was stored below −66°C before the analysis. LC-MS/MS methods (liquid chromatograph/mass spectrometer) were used to detect concentrations of LPM3480392 at each time point. TK parameters (AUC, Cmax, Tmax) were calculated by Phoenix WinNonlin (Pharsight) 8.2. The detection instruments include ultra-performance liquid chromatography (Waters, United States ACQUITY UPLC I -CLASS) and triple quadrupole tandem mass spectrometer (Waters, United States, Xevo TQ-S).

SMILES: Fc1ccc([C@]2(CCNCc3cccc(Cl)c3)CCO[C@]3(CCOC3)C2)nc1 [LPM3480392]
- Accumulation after 28-day repeated dosing (0.6–2.4 mg/kg/day): No accumulation
- Gender difference of mean AUC0–12h in plasma (0.6–2.4 mg/kg/day): no apparent gender difference
- concentration at 2 min (both sexes, 0.6 mg/kg/day, 0.6 mg/kg/day iv, 1st dosing day, F + M, read-out: C2min (The 1st dosing)): 88.3 ± 18.8 ng/mL
- concentration at 2 min (both sexes, 0.6 mg/kg/day, 0.6 mg/kg/day iv, 1st dosing day, F + M, read-out: C2min (The 2nd dosing)): 68.4 ± 12.8 ng/mL
- concentration at 2 min (both sexes, 0.6 mg/kg/day, 0.6 mg/kg/day iv, 1st dosing day, F + M, read-out: C2min (The 3rd dosing)): 60.1 ± 10.4 ng/mL
- concentration at 2 min (both sexes, 0.6 mg/kg/day, 0.6 mg/kg/day iv, 28th dosing day, F + M, read-out: C2min (The 1st dosing)): 87.2 ± 14.7 ng/mL
- concentration at 2 min (both sexes, 0.6 mg/kg/day, 0.6 mg/kg/day iv, 28th dosing day, F + M, read-out: C2min (The 2nd dosing)): 75.4 ± 10.2 ng/mL
- concentration at 2 min (both sexes, 0.6 mg/kg/day, 0.6 mg/kg/day iv, 28th dosing day, F + M, read-out: C2min (The 3rd dosing)): 73.9 ± 10.9 ng/mL
- concentration at 2 min (both sexes, 1.2 mg/kg/day, 1.2 mg/kg/day iv, 1st dosing day, F + M, read-out: C2min (The 1st dosing)): 175 ± 18.6 ng/mL
- concentration at 2 min (both sexes, 1.2 mg/kg/day, 1.2 mg/kg/day iv, 1st dosing day, F + M, read-out: C2min (The 2nd dosing)): 155 ± 29.4 ng/mL
- concentration at 2 min (both sexes, 1.2 mg/kg/day, 1.2 mg/kg/day iv, 1st dosing day, F + M, read-out: C2min (The 3rd dosing)): 148 ± 27 ng/mL
- concentration at 2 min (both sexes, 1.2 mg/kg/day, 1.2 mg/kg/day iv, 28th dosing day, F + M, read-out: C2min (The 1st dosing)): 179 ± 23.2 ng/mL
- concentration at 2 min (both sexes, 1.2 mg/kg/day, 1.2 mg/kg/day iv, 28th dosing day, F + M, read-out: C2min (The 2nd dosing)): 140 ± 31 ng/mL
- concentration at 2 min (both sexes, 1.2 mg/kg/day, 1.2 mg/kg/day iv, 28th dosing day, F + M, read-out: C2min (The 3rd dosing)): 149 ± 24.6 ng/mL
- concentration at 2 min (both sexes, 2.4 mg/kg/day, 2.4 mg/kg/day iv, 1st dosing day, F + M, read-out: C2min (The 1st dosing)): 330 ± 27.6 ng/mL
- concentration at 2 min (both sexes, 2.4 mg/kg/day, 2.4 mg/kg/day iv, 1st dosing day, F + M, read-out: C2min (The 2nd dosing)): 290 ± 23.1 ng/mL
- concentration at 2 min (both sexes, 2.4 mg/kg/day, 2.4 mg/kg/day iv, 1st dosing day, F + M, read-out: C2min (The 3rd dosing)): 229 ± 43.6 ng/mL
- concentration at 2 min (both sexes, 2.4 mg/kg/day, 2.4 mg/kg/day iv, 28th dosing day, F + M, read-out: C2min (The 1st dosing)): 351 ± 61.7 ng/mL
- concentration at 2 min (both sexes, 2.4 mg/kg/day, 2.4 mg/kg/day iv, 28th dosing day, F + M, read-out: C2min (The 2nd dosing)): 323 ± 89.2 ng/mL
- concentration at 2 min (both sexes, 2.4 mg/kg/day, 2.4 mg/kg/day iv, 28th dosing day, F + M, read-out: C2min (The 3rd dosing)): 320 ± 34.2 ng/mL
- AUC(0-t) (both sexes, 0.6 mg/kg/day, 0.6 mg/kg/day iv, 1st dosing day, F + M, read-out: AUC0–12h): 315 ± 43.7 ng·h/mL
- AUC(0-t) (both sexes, 0.6 mg/kg/day, 0.6 mg/kg/day iv, 28th dosing day, F + M, read-out: AUC0–12h): 349 ± 38.2 ng·h/mL
- AUC(0-t) (both sexes, 0.6 mg/kg/day, female + male, 0.6 mg/kg/day, Day 1, read-out: Mean AUC0–12h): 315 ng·h/mL
- AUC(0-t) (both sexes, 0.6 mg/kg/day, female + male, 0.6 mg/kg/day, Day 28, read-out: Mean AUC0–12h): 349 ng·h/mL
- AUC(0-t) (both sexes, 1.2 mg/kg/day, 1.2 mg/kg/day iv, 1st dosing day, F + M, read-out: AUC0–12h): 663 ± 114 ng·h/mL
- AUC(0-t) (both sexes, 1.2 mg/kg/day, 1.2 mg/kg/day iv, 28th dosing day, F + M, read-out: AUC0–12h): 680 ± 74.5 ng·h/mL
- AUC(0-t) (both sexes, 1.2 mg/kg/day, female + male, 1.2 mg/kg/day, Day 1, read-out: Mean AUC0–12h): 663 ng·h/mL
- AUC(0-t) (both sexes, 1.2 mg/kg/day, female + male, 1.2 mg/kg/day, Day 28, read-out: Mean AUC0–12h): 680 ng·h/mL
- AUC(0-t) (both sexes, 2.4 mg/kg/day, 2.4 mg/kg/day iv, 1st dosing day, F + M, read-out: AUC0–12h): 1250 ± 93.6 ng·h/mL
- AUC(0-t) (both sexes, 2.4 mg/kg/day, 2.4 mg/kg/day iv, 28th dosing day, F + M, read-out: AUC0–12h): 1490 ± 169 ng·h/mL
- AUC(0-t) (both sexes, 2.4 mg/kg/day, female + male, 2.4 mg/kg/day, Day 1, read-out: Mean AUC0–12h): 1250 ng·h/mL
- AUC(0-t) (both sexes, 2.4 mg/kg/day, female + male, 2.4 mg/kg/day, Day 28, read-out: Mean AUC0–12h): 1490 ng·h/mL
- Mean AUC0–12h ratio, Day 28 and Day 1 (female + male, 1.2 mg/kg/day): 1.0
- Mean AUC0–12h ratio, Day 28 and Day 1 (female + male, 2.4 mg/kg/day): 1.2
- concentration at 2 min (female, 0.6 mg/kg/day, 0.6 mg/kg/day iv, 1st dosing day, F, read-out: C2min (The 1st dosing)): 78.4 ± 10.9 ng/mL
- concentration at 2 min (female, 0.6 mg/kg/day, 0.6 mg/kg/day iv, 1st dosing day, F, read-out: C2min (The 2nd dosing)): 66.2 ± 12.4 ng/mL
- concentration at 2 min (female, 0.6 mg/kg/day, 0.6 mg/kg/day iv, 1st dosing day, F, read-out: C2min (The 3rd dosing)): 55.5 ± 8.94 ng/mL
- concentration at 2 min (female, 0.6 mg/kg/day, 0.6 mg/kg/day iv, 28th dosing day, F, read-out: C2min (The 1st dosing)): 90.1 ± 8.8 ng/mL
- concentration at 2 min (female, 0.6 mg/kg/day, 0.6 mg/kg/day iv, 28th dosing day, F, read-out: C2min (The 2nd dosing)): 73 ± 12.6 ng/mL
- concentration at 2 min (female, 0.6 mg/kg/day, 0.6 mg/kg/day iv, 28th dosing day, F, read-out: C2min (The 3rd dosing)): 68.5 ± 11.8 ng/mL
- concentration at 2 min (female, 1.2 mg/kg/day, 1.2 mg/kg/day iv, 1st dosing day, F, read-out: C2min (The 1st dosing)): 181 ± 24.8 ng/mL
